Where two headings read alike, the source gives them in different places. A value given as a limit tells only on which side of the number the result lay.

Here are results for 6 compounds from US20260083864A1, “CONTRAST AGENTS FOR USE IN DIAGNOSTIC COMPUTED TOMOGRAPHY IMAGING” (Bayer Aktiengesellschaft, priority 2022, published 2026).

For series [1] the following is noted: reference compounds, 1.5 T, 37° C., from Rohrer et al.; cited from earlier work.
The conditions of series [2]: reference compounds, 1.5 T, 37° C., bovine plasma instead of human plasma, from Rohrer et al.; cited from earlier work.
Series [3] can be described thus: Partition coefficient (log P butanol/buffer). The conditions noted are these: 1-butanol / 50 mM Tris-HCl, pH 7.4, room temperature. The series is classed as physicochemical.
Series [4] deals with freshly isolated rat hepatocytes. Description: Uptake into freshly isolated rat hepatocytes. To be noted: for Inhibition Rifampicine: rat hepatocyte uptake, test item and Rifampicine 1:1, each 100 μM; for Uptake rat hepatocytes: 100 μmol Gd/L, 10 min, 37° C., relative to RC1 (Gd-EOB-DTPA).
A short description of series [5]: Relaxivity measurements at 1.41 T in human plasma. The series is classed as physicochemical. The conditions noted are these: 37° C., normalized to Gd. The method in brief: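 T1 determined by inversion recovery (8 inversion-time steps) and T2 by CPMG sequence, both with relaxation delay ≥5×T1. Each relaxivity used three Gd concentrations between 0.05 and 2 mM. Relaxivities were derived from relaxation rates measured in water and plasma.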

Series [6] in a line: Relaxivity measurements at 1.41 T in water. The class given is physicochemical. The conditions noted are these: 37° C., normalized to Gd. The method in brief: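 T1 by inversion recovery and T2 by CPMG at 1.41 T (60 MHz), 37° C, relaxation delay ≥5×T1. Three Gd concentrations between 0.05 and 2 mM; relaxivities derived from measured relaxation rates in water.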
The target of another series is T1, OATP1B3 (Homo sapiens, UniProt Q9NPD5).
T1 sequence (Q9NPD5 1-702): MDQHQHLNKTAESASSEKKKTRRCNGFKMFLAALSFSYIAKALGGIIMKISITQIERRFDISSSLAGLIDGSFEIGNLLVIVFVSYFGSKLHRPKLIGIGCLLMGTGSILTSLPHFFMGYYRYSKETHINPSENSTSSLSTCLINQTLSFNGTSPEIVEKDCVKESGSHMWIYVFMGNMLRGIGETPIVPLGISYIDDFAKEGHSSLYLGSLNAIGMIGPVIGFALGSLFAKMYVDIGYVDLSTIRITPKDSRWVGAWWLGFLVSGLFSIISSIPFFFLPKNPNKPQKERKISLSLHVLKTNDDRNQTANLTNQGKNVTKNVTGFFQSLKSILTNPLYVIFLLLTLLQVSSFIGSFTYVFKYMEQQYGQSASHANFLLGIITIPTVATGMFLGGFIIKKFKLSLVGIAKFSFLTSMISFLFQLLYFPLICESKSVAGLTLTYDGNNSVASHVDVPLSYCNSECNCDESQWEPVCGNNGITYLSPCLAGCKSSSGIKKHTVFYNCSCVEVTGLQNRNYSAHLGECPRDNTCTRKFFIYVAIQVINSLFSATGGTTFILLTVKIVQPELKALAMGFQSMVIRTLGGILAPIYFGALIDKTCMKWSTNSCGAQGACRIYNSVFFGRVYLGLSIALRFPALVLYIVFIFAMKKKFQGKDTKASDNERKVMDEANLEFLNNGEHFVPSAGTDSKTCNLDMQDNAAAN
The series is described as follows: Uptake into stable transfected OATP1B3 HEK 293 cells. The series is classed as cell-based. The conditions noted are these: for Uptake into OATP1B3-HEK 293 cells: 40 min incubation, relative to RC1 (Gd-EOB-DTPA); for Inhibition Rifampicine: uptake into OATP1B3-HEK 293 cells. The method in brief:
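HEK 293 cells stably transfected with human OATP1B3 were incubated for 40 min with test items at 100 μM final in transport buffer, in triplicate, then washed with cold PBS. Gadoxetate (Gd-EOB-DTPA) served as the reference standard on the same plate.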

A short description of series [7]: Complex stability (transmetallation) against Zn2+ in phosphate buffer. To be noted: 72 hours, 2.5 mM Zn^2+, 26 mM phosphate buffer, 37° C., pH 7.4. The text has this: If test compounds are instable under these conditions, transmetallation during this test would lead to the formation of the Zn^2+ complex of the test item, while Gd^3+ is released and precipitated as highly insoluble GdPO4.

In another series the target is T2, OATP1B1 (Homo sapiens, UniProt Q9Y6L6).
T2 sequence (Q9Y6L6 1-691): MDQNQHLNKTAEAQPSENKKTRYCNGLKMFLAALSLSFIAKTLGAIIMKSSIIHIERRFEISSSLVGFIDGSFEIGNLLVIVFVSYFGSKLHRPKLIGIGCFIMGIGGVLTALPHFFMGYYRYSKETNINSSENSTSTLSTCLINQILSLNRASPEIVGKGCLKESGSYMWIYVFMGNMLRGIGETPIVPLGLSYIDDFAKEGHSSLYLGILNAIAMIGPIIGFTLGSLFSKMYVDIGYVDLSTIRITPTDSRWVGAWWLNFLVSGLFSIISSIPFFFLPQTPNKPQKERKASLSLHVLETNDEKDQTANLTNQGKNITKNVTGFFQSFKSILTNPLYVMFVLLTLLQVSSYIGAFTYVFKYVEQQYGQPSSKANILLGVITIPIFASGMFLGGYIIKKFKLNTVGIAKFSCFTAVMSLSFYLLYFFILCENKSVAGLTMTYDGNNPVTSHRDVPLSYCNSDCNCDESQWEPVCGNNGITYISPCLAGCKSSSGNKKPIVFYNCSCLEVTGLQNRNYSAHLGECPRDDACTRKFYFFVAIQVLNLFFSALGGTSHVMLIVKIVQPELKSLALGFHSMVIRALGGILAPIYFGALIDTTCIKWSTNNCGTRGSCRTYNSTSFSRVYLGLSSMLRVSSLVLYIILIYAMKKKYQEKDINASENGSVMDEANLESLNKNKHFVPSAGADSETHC
Description: Uptake into stable transfected OATP1B1 HEK 293 cells. The series is classed as cell-based. To be noted: for Uptake into OATP1B1-HEK 293 cells: 40 min incubation, relative to RC1 (Gd-EOB-DTPA); for Inhibition Rifampicine: uptake into OATP1B1-HEK 293 cells. The gist of the method:
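Stably transfected OATP1B1 HEK293 cells incubated 40 min without shaking with test item at 100 µM final in transport buffer, in triplicate. Cells then washed with cold PBS; gadoxetate run on the same plate as reference.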

The nature of series [8]: Water solubility in aqueous buffer. The conditions noted are these: aqueous buffer 10 mM Tris-HCl, pH 7.4, 20° C. Here is the method: The solid compounds were added stepwise to the buffer solution. More substance is added once all the suspended material is dissolved until an equilibrium between undissolved and dissolved substance is reached. The suspension was mixed using a shaker (Heidolph Reax 2000) and treated 5 min in an ultrasound bath (Bandelin, Sonorex Super RK255H).

With `O=C([O-])CN1CCN(CC(=O)[O-])CCN([C@H](CO)[C@H](O)CO)CCN(CC(=O)[O-])CC1.[Gd+3]` (racemic) [RC3, gadobutrol, reference compound], the r1 water in series [1] was 3.3 L/mmol/s. Moreover, the “r1 plasma (r1 human plasma)” value in series [2] is 5.2 L/mmol/s. In addition, in [3], the “Log P (partition coefficient butanol/buffer)” value was −2.22. In addition, the “Inhibition Rifampicine” value in series [4] was 0 % inhibition.

`CCCCOc1cccc(CCC[C@@H](C(=O)O)N2CCN([C@@H](CO)C(=O)[O-])CCN([C@@H](CO)C(=O)[O-])CCN([C@@H](CO)C(=O)[O-])CC2)c1.[Gd+3]` [Example 34, gadolinium (2S,2′S,2″S)-2,2′,2″-{10-[(1S)-4-(3-butoxyphenyl)-1-carboxybutyl]-1,4,7,10-tetraazacyclododecane-1,4,7-triyl}tris(3-hydroxypropanoate)] yielded a r1 human plasma in series [5] of 18.0 L/mmol/s. In [6], this compound had a r1 water of 4.9 L/mmol/s. In addition, on OATP1B3, the “Uptake into OATP1B3-HEK 293 cells” value is on record as 140 % of RC1 and the “Inhibition Rifampicine” value worked out at 98 % inhibition. The same compound displayed a Transmetallation stability in series [7] of 101%. Besides, on OATP1B1, the “Uptake into OATP1B1-HEK 293 cells” value was 947 % of RC1 and the “Inhibition Rifampicine” value came out at 96 % inhibition. In series [8], the Solubility was more than 236 mM. Further, in [3], the “Log P (partition coefficient butanol/buffer)” value amounted to 0.12. In addition, in series [4], the Uptake rat hepatocytes is reported as 98 % of RC1 and the “Inhibition Rifampicine” value was determined as 90 % inhibition.

Take `CCOCCOc1ccc(CC(C(=O)O)N2CCN(CC(=O)[O-])CCN(C(COC)C(=O)[O-])CCN(CC(=O)[O-])CC2)cc1.[Gd+3]` (centres unmarked) [Example 38, gadolinium 2-[7-{1-carboxy-2-[4-(2-ethoxyethoxy)phenyl]ethyl}-4,10-bis(carboxylatomethyl)-1,4,7,10-tetraazacyclododecan-1-yl]-3-methoxypropanoate]: the r1 human plasma in series [5] turned out to be 7.5 L/mmol/s. In [6], this compound yielded a r1 water of 5.6 L/mmol/s. At OATP1B3, the “Uptake into OATP1B3-HEK 293 cells” value is 24 % of RC1 and the “Inhibition Rifampicine” value came to 94 % inhibition. This compound came in with a Transmetallation stability in series [7] of 97%. Also, on OATP1B1, the “Uptake into OATP1B1-HEK 293 cells” value is given as 137 % of RC1 and the “Inhibition Rifampicine” value is 65 % inhibition. The compound further gave a Solubility in series [8] of more than 103 mM. Moreover, in series [3], the “Log P (partition coefficient butanol/buffer)” value was −1.41. For the same compound, in [4], the Uptake rat hepatocytes is recorded as 62 % of RC1 and the “Inhibition Rifampicine” value is 94 % inhibition.

`CCOCCOCCOc1ccc(CC(C(=O)[O-])N2CCN(CC(=O)[O-])CCN(C(CC)C(=O)O)CCN(CC(=O)[O-])CC2)cc1.[Gd+3]` (centres unmarked) [Example 43, gadolinium-2-{4,10-bis(carboxylatomethyl)-7-[1-carboxypropyl]-1,4,7,10-tetraazacyclododecan-1-yl}-3-{4-[2-(2-ethoxyethoxy)ethoxy]phenyl}propanoate]: the r1 human plasma in series [5] came out at 6.9 L/mmol/s. Further, the r1 water in [6] was determined as 4.8 L/mmol/s. On OATP1B3, the “Uptake into OATP1B3-HEK 293 cells” value is 111 % of RC1 and the “Inhibition Rifampicine” value is recorded as 99 % inhibition. The same compound showed a Transmetallation stability in series [7] of 102%. Further, at OATP1B1, the “Uptake into OATP1B1-HEK 293 cells” value was 122 % of RC1 and the “Inhibition Rifampicine” value was found to be 62 % inhibition. Besides, the Solubility in series [8] is more than 209 mM. Besides, in series [3], the “Log P (partition coefficient butanol/buffer)” value is −1.19. Further, in [4], the Uptake rat hepatocytes is given as 90 % of RC1 and the “Inhibition Rifampicine” value was determined as 97 % inhibition.

Take `COCC(C(=O)O)N1CCN(CC(=O)[O-])CCN(C(Cc2ccc(OCC(F)(F)C(F)F)cc2)C(=O)[O-])CCN(CC(=O)[O-])CC1.[Gd+3]` (centres unmarked) [Example 45, gadolinium-2-{4,10-bis(carboxylatomethyl)-7-[1-carboxy-2-methoxyethyl]-1,4,7,10-tetraazacyclododecan-1-yl}-3-[4-(2,2,3,3-tetrafluoropropoxy)phenyl]propanoate]: the r1 human plasma in [5] was 11.4 L/mmol/s. Also, in [6], the r1 water was determined as 4.5 L/mmol/s. At OATP1B3, the “Uptake into OATP1B3-HEK 293 cells” value is given as 106 % of RC1 and the “Inhibition Rifampicine” value is 98 % inhibition. The Transmetallation stability in series [7] amounted to 100%. At OATP1B1, the “Uptake into OATP1B1-HEK 293 cells” value was 492 % of RC1 and the “Inhibition Rifampicine” value is given as 95 % inhibition. In series [8], this compound came in with a Solubility of more than 63 mM. In addition, the “Log P (partition coefficient butanol/buffer)” value in series [3] was −0.36. Besides, in series [4], the Uptake rat hepatocytes was 68 % of RC1 and the “Inhibition Rifampicine” value was 82 % inhibition.

For the compound `O=C([O-])CN1CCN(CC(=O)[O-])CCN(C(Cc2ccc(OCC(F)(F)C(F)F)cc2)C(=O)O)CCN(CC(=O)[O-])CC1.[Gd+3]` (centres unmarked) [Example 46, gadolinium 2,2′,2″-(10-{1-carboxy-2-[4-(2,2,3,3-tetrafluoropropoxy)phenyl]ethyl}-1,4,7,10-tetraazacyclododecane-1,4,7-triyl)triacetate], the r1 human plasma in series [5] stood at 10.8 L/mmol/s. In addition, the r1 water in series [6] amounted to 3.5 L/mmol/s. At OATP1B3, the “Uptake into OATP1B3-HEK 293 cells” value is on record as 43 % of RC1 and the “Inhibition Rifampicine” value is 97 % inhibition. This compound also came in with a Transmetallation stability in series [7] of 101%. Besides, on OATP1B1, the “Uptake into OATP1B1-HEK 293 cells” value is reported as 356 % of RC1 and the “Inhibition Rifampicine” value was found to be 95 % inhibition. The compound further displayed a Solubility in series [8] of more than 263 mM. Also, in series [3], the “Log P (partition coefficient butanol/buffer)” value was −0.57. Besides, in series [4], the Uptake rat hepatocytes is listed as 106 % of RC1 and the “Inhibition Rifampicine” value is listed as 90 % inhibition.
